Here are results for one compound from article PMC4915154, “Development of background-free tame fluorescent probes for intracellular live cell imaging” (Nature Communications, 2016).

Series [1] in a line: Spectroscopic properties (absorbance, emission, extinction coefficient, quantum yield). In kind it is physicochemical. As to conditions: 10 μM in DMSO. The procedure:
Supplementary Table 9. Spectrocopic properties and purity table for CO-1 and CO-1H.
Calculated mass, experimental mass, absorbance maximum (λabs), fluorescent emission maximum (λem), extinction coefficient (ε), quantum yield (Φ), and purity. mass m/z λabs λem ε Purity […]
Absorbance and fluorescence emission data were recorded by a Synergy 4, Biotek Inc. fluorescent plate reader at 10 μM concentration in DMSO in 96-well plates. HRMS a: found mass (M-H), b: tetramethyl BODIPY was used as standard, c: purity data was calculated on the basis of the integration in HPLC trace at 254 nm.

Series [2] has as its system U-2 OS and CHO cell lines. Nature of the series: Cellular retention and efflux characteristics test (before/after washing imaging, retaining ratio RR). As to conditions: 30 min. In kind it is cell-based, human (U-2 OS), Chinese hamster (CHO). The source says: To expedite an efficient strategy for ‘tame' probe development, we set up a system to predict cellular properties of fluorescent probes via phenotypic high-throughput screening (HTS), cheminformatics and statistical analysis (Fig. 1a). As the first step, we conducted phenotypic HTS to investigate cell permeability and nonspecific binding properties of the probes in a training set. We tested about 2,085 probes consisted of a wide range photophysical properties from numerous fluorophore cores such as BODIPY[12][13][14][15], xanthone, rosamine, cyanine[19][20] and ACEMAN[21]. Their cellular influx and efflux profiles were examined in two types of mammalian cells, U-2 OS and CHO. These cell lines were chosen due to their flexibility in genetic manipulation, adaptability to various culture conditions and versatility in wide biomedical research such as gene expression, toxicity screening, recombinant protein and live cell imaging. Each of the probes was added into live cells and cell image was taken after 30 min by ImageXpress Micro cellular imaging system (Molecular Device). The cells were then washed with fresh growth media, and after another 10 min, a second image was taken to check the completeness of probe washing out of the cell. The first and second imaging facilitated influx (before washing, BW) and efflux (after washing, AW) measurements, respectively (Supplementary Fig. 1).
To measure the influx and efflux of the probes, an automated quantitative intensity-based image analysis was then performed by Multi-Wavelength Cell Scoring analysis using MetaXpress High Content Image software. Retaining ratio (RR, per cent ratio of the average intensity of AW image over BW image) was computed to classify probes into the three phenotypic groups. For each cell in the image, the nuclei and cell region were segmented to provide approximate cellular boundaries. Fluorescence intensity was then quantified on a cell-by-cell basis by the following steps: (i) selecting the image of interest, (2) specifying the width of the stained cell area, (3) adjusting the intensity above local background for detection specificity, and (4) calculating fluorescence intensity with specified reporting parameters. Average fluorescence intensity for each BW and AW images was calculated for each probes and cell lines, and was then used as input in RR calculation (Supplementary Figs 2 and 3).
U-2 OS, a human osteosarcoma cell line, and CHO, a Chinese hamster ovary cell line, (from ATCC) were cultured in Dulbecco's modified eagle's medium (DMEM) (Invitrogen, CA, USA) supplemented with fetal bovine serum (FBS) (10%) and penicillin–streptomycin (1%). Materials used in the cell culture were purchased from Invitrogen. U-2 OS and CHO cells were seeded onto 96-well plate in growth media at 37 °C in the presence of 5% CO2 and were then allowed to attach and grow to 70–80% confluence. Library probes were dissolved in dimethylsulfoxide (DMSO) to make the 1 mM solution, and stored in −20 °C. Before HTS experiment, the growth media was aspirated and replaced by 200 μl fresh growth media containing probes in final concentration of 1 μM and nuclei dye Hoechst 33342. Plates were incubated for 30 min at 37 °C then were imaged using ImageXpress Micro cellular imaging system (Molecular Device) with × 10 objective lens. Immediately after image acquisition, the cells were washed with fresh growth media, and transferred back to a 37 °C cell incubator for further incubation. After 10 min, cells were again imaged (AW image). The first imaging step allowed influx measurement of BW image , while the second imaging step allowed out-flux measurement of AW image. Images of two regions per well were acquired with DAPI, FITC, TRITC or Texas Red filter sets according to probes' excitation and emission wavelength. Experiment was performed in duplicate. Cellular retention and efflux characteristics test for other synthesized probes were also done by using the same protocol. […]

The nature of series [3]: Photostability measurements. Type of series: physicochemical. The conditions noted are these: 10 μM in PBS buffer pH 7.4 with 1% DMSO, intensive radiation of strong light source. The procedure: 10 μM of CO-1 solution in PBS buffer (pH 7.4) containing 1% DMSO were placed in a 96-well plates. Fluorescence measurement were recorded every 30 s interval for a total period of 12 h (Ex/Em=490/520) under a xenon flashlamp. For harsh condition experiment, photostability test was done under high intensity UV lamp (Blak Ray, 100 W, 365 nm). Plates were irradiated for 10 min up to 2.5 h at 10 cm distance.
Supplementary Figure 17 Photostability analysis of CO-1.
10 μM CO-1 solution in PBS buffer (pH 7.4) containing 1% DMSO were placed in a 96-well plates. (a) Fluorescence measurement were recorded every 30 seconds interval for a total period of 12 hours (Ex/Em = 490/520) under a xenon flashlamp. (b) Photostability test under high intensity UV lamp (Blak Ray, 100W, 365 nm). Plates were irradiated for 10 minutes up to 2.5 hours at 10 cm distance. Values are represented as means (n=3) and fitted to a non-linear regression one-phase exponential decay (GraphPad Prism 5.0)
(1 picture or pasted object on this page, not shown here)

`Cc1cc(C)n2c1C(CCNC(=O)CCC(=O)OCC1C3CCC#CCCC31)=C1C=CC=[N+]1[B-]2(F)F` (stereo not shown) [CO-1]: in series [1], the ε amounted to 66668 M⁻¹ cm⁻¹, the λabs worked out at 490 nm and the λem is reported as 510 nm. In addition, the “QY (Φ)” value in series [1] (tetramethyl BODIPY as standard) amounted to 0.66. In series [2] (CHO and U-2 OS cells, 1 uM probe), the “Cellular retention after washing (probe signal)” value was “leave the cells after washing”. Also, the Experimentally observed group entry in series [2] (U-2 OS and CHO cell lines, probe 1 μM, imaged before and 10 min after washing) was “L-group (Probes (FI(BW) >200) with rapid efflux were observed to have a RR of <5%, and thus were classified into L-group)”. For the same compound, the Photostability entry in series [3] was “superior photostability”.
